Starred links: 1 amine or outer side, 2 acyl side, 3 side chain; linkers in the order of their positions; H or OH if unused. Positions of bridges follow the written chain, without caps; N, C: chain ends. Non-standard residues stand in square brackets, D forms with d. Residues, ends and D or L forms follow the SMILES beside them. Gly((CH2)5SH) = N[C@@H](CCCCCS)C(=O)O; mXylylene = c1cc(C[*:1])cc(C[*:2])c1; Nle = CCCC[C@H](N)C(=O)O; CH2CH2 = C(C[*:2])[*:1]; βAla = NCCC(=O)O

The target of assay [1] is T1, Protein deacetylase HDAC6 (Homo sapiens, UniProt Q9UBN7).
T1 sequence (Q9UBN7 whole entry): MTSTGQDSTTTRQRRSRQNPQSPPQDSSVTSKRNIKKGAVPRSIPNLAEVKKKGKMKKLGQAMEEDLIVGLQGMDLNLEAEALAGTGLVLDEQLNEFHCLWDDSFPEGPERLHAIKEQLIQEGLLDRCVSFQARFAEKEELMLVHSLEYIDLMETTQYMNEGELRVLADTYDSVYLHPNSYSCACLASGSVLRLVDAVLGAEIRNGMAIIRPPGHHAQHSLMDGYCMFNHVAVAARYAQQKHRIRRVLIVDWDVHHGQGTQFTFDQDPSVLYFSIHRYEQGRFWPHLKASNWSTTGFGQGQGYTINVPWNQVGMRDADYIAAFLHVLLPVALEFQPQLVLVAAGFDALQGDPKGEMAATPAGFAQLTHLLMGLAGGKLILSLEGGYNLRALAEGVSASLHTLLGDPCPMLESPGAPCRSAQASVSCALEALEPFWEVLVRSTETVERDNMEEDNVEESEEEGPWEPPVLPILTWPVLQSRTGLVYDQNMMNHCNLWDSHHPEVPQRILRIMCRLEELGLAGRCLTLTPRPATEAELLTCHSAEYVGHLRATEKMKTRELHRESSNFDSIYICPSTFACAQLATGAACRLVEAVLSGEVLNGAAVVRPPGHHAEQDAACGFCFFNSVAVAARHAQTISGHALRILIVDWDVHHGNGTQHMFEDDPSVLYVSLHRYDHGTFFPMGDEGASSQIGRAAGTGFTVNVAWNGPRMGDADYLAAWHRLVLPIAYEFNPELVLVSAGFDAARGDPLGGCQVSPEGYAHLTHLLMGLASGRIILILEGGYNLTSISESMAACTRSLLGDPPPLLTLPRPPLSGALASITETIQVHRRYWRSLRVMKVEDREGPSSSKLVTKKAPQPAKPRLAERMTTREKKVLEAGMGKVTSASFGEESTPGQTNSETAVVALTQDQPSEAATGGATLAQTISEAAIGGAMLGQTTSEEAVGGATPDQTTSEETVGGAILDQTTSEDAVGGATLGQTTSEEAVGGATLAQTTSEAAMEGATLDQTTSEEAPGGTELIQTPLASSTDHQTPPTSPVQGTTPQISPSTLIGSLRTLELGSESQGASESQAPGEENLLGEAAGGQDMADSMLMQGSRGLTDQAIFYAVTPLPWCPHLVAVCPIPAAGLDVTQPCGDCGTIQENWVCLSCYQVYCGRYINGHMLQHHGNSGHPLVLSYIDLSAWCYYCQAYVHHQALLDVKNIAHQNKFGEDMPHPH
The assay is described as follows: Inhibition of HDAC6 (unknown origin).

In another assay the target is Sonic hedgehog protein (Homo sapiens, UniProt Q15465). Description: Binding affinity to SHH (unknown origin) assessed as dissociation constant by calorimetric analysis.
Chain of Sonic hedgehog protein (Q15465 24-197 limits assumed): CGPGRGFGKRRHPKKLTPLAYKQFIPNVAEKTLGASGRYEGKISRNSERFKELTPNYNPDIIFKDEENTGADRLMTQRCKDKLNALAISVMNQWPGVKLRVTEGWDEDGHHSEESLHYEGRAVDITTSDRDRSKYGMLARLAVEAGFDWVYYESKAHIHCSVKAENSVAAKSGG
A short description of assay [2]: Antiproliferative activity against human LNCaP-abl cells assessed as cell growth inhibition measured after 24 hrs by CellTiter-Glo assay. In kind it is functional, cell-based. Background: ATP-based viability assays read luminescence as a measure of living cells.
The nature of assay [3]: Antiproliferative activity against human LNCaP-95 cells assessed as cell growth inhibition measured after 24 hrs by CellTiter-Glo assay. In kind it is functional, cell-based. As to conditions: LNCaP-95, 24 h.
Assay [4] in a line: Inhibition of NDM-1 (unknown origin). Also on record: species or system Bacteria.
A further assay has as its target T2, TCF4-CTNNB1 complex (Homo sapiens, UniProt P35222).
T2 sequence (P35222 whole entry): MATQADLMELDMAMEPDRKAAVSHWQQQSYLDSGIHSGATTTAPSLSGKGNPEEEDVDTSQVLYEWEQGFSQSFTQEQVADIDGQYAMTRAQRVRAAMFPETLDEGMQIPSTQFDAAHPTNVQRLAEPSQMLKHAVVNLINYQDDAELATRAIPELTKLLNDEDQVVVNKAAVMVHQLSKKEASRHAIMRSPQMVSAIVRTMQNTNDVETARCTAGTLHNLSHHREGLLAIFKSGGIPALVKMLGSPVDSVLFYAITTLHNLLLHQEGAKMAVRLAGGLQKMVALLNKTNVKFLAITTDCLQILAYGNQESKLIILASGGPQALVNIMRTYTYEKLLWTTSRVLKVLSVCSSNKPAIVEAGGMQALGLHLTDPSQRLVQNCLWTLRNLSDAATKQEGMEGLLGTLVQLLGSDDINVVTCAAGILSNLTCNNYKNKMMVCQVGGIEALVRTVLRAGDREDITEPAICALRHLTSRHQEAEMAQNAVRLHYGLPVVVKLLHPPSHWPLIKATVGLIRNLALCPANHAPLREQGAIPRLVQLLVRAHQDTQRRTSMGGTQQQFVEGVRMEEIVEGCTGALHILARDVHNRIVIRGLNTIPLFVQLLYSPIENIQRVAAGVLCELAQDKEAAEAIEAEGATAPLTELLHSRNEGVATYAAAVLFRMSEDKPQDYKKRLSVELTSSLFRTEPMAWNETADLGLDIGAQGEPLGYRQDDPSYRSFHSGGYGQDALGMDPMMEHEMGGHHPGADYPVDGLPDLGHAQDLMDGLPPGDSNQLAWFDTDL
T2 sequence (P15884 whole entry): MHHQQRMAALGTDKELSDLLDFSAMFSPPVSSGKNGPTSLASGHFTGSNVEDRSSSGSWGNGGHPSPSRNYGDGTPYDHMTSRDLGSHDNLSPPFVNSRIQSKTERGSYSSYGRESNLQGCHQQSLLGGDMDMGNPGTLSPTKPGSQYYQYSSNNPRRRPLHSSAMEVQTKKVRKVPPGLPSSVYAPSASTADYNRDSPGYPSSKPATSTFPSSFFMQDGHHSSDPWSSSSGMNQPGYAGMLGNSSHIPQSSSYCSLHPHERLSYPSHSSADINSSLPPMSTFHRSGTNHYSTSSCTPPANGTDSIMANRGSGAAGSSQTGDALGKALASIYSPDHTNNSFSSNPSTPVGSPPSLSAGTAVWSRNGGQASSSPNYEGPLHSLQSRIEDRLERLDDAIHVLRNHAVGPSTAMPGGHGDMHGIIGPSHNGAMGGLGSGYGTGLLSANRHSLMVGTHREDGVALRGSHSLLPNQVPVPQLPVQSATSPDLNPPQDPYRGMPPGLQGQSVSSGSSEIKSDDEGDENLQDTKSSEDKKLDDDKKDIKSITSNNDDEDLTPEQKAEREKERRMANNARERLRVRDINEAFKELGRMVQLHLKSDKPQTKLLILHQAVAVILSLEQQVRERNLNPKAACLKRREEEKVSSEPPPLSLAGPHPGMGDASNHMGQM
Description: Inhibition of FITC-labeled Tcf4 (unknown origin) / full length beta-catenin (1 to 781 residues) (unknown origin) protein-protein interaction measured after 1 hr by fluorescence polarization assay. The format is protein-complex assay.

In the case of `CCCC[C@@H]1NC(=O)[C@H](Cc2ccccc2)NC(=O)[C@H](CCCCCS)NC(=O)[C@H](CCCNC(=N)N)NC(=O)[C@H](CC(=O)O)NC(=O)[C@H](CO)NC(=O)[C@H](C)NC(=O)[C@H](CCCCN)NC1=O` (cyclo(ASDR[Gly((CH2)5SH)]F[Nle]K)), the IC50 (usually the concentration that gives 50% inhibition) in assay [1] worked out at 17 nM. For `CSCC[C@@H]1NC(=O)[C@H](C)NC(=O)[C@H](CCC(=O)O)NC(=O)[C@@H](NC(=O)[C@@H]2CCCN2C(=O)[C@H](CO)NC(=O)[C@H](CO)NC(=O)CN)Cc2ccc(cc2)OCCSC[C@@H](C(=O)N[C@H](C(=O)N[C@@H](CC(=O)O)C(=O)N[C@H](C(=O)NCC(=O)O)[C@@H](C)O)[C@@H](C)O)NC(=O)[C@H](CCSC)NC(=O)[C@H](CC(=O)O)NC1=O` (H-GSSPYEAMDMCTDTG-OH; linker 5-11 via CH2CH2), the Kd (in general, the equilibrium constant for the complex coming apart) at Sonic hedgehog protein was determined as 550 nM. For the molecule `COc1ccc([C@H](C)N2CC(=O)N(CCCOC(C)C)CC(=O)N(c3cc(OC)cc(OC)c3)CC(=O)N(CCc3ccccc3Oc3ccccc3)CC(=O)N[C@H](C)C(=O)N([C@@H](C)c3ccc(OC)cc3)CC2=O)cc1`, the values for the IC50 in assay [2] and in assay [3] were 0.195 µM and 782 nM, respectively. Consider `C[C@@H](CS)C(=O)N1CCC[C@@H]1C(=O)O`, for which, in assay [4], the IC50 turned out to be 59.7 µM. The same measure, in the same setting: the figure for `CC[C@H](C)[C@@H]1NC(=O)[C@@H]2CCCN2C(=O)[C@H](CC(=O)O)NC(=O)[C@H](CCCNC(=N)N)NC(=O)[C@H](CCCNC(=N)N)NC(=O)[C@H](CC(C)C)NC(=O)[C@H](CS)NC(=O)[C@@H]2CCCN2C1=O` (cyclo(CLRRDPIP)) is 1.2 µM. Molecule `CC(C)C[C@@H]1NC(=O)[C@@H]2CSCc3cccc(c3)CSC[C@H](NC(=O)[C@H](CC(N)=O)NC(=O)[C@H](CCCNC(=N)N)NC(=O)[C@H]([C@@H](C)O)NC(=O)[C@H](C(C)C)NC(=O)CCNC(=O)CCNC(=O)[C@H](Cc3ccccc3)NC(=O)[C@H](C(C)C)NC(=O)[C@H](CC(C)C)NC1=O)C(=O)N[C@@H](C(C)C)C(=O)N1CCC[C@H]1C(=O)N1CCC[C@H]1C(=O)N[C@@H](CC(=O)O)C(=O)N2` (cyclo(CLLVF[βAla][βAla]VTRNCVPPD); linker 1-12 via mXylylene) showed an IC50 at TCF4-CTNNB1 complex of 4.8 µM. Consider `COc1ccc([C@H](C)N(CC(=O)N(CCCOC(C)C)CC(=O)N(CC(=O)N(CCc2ccccc2Oc2ccccc2)CC(=O)O)c2cc(OC)cc(OC)c2)C(=O)CN(C(=O)[C@@H](C)N)[C@@H](C)c2ccc(OC)cc2)cc1`, for which the IC50 in assay [2] is 7.1 µM; in assay [3] it was > 20000 nM.

These data come from ChEMBL document CHEMBL5108037, “Cyclic Peptide Screening Methods for Preclinical Drug Discovery” (J Med Chem, 2022).
